Reference: patent US20150231147A1, “METHODS FOR ACUTE AND LONG-TERM TREATMENT OF DRUG ADDICTION” (DemeRx, Inc., priority 2014, published 2015)
“Also recorded” adds a separate entry of the source. Like-named read-outs stand apart in the source and are kept apart here.

Experiments:
Type in all cases: in vivo, human
[1] = Plasma noribogaine pharmacokinetics, ascending single oral dose, healthy volunteers; settings: for CL/F / AUC(0-inf) / Cmax / Tmax / Vd/F / AUC(0-t) / half-life: plasma; for AUC(0-inf) / Cmax / Tmax / Vd/F / AUC(0-t) / half-life: human; for AUC(0-t): read-out: AUC0-216
[2] = system: healthy, drug-free male volunteers; assay: Pupillary miosis assessed by pupillometry
Method: (§1) Pulse oximetry and capnography data were collected continuously using a GE Carescape B650 monitoring system from 2 hours prior to dosing and until six hours after dosing, and thereafter at 12, 24, 48 and 72 hours post-dosing. […] Pupillary miosis was assessed by pupillometry.

[3] = system: healthy, drug-free male volunteers; assay: Cold pressor test (analgesic effect)
Method: Analgesic effect was assessed based on duration of hand immersion in ice water and on visual analog scale (VAS) pain scores upon hand removal from the water bath.
(§2) Safety and tolerability of noribogaine were tested in the group of volunteers from Example 1. […] Safety evaluations included clinical monitoring, recording of adverse events (AEs), safety laboratory tests, vital signs, ECG telemetry from −2 h to 6 h after dosing, and 12-lead electrocardiograms (ECGs) up to 216 hours post-dosing.

[4] = system: healthy, drug-free male volunteers; assay: Safety and tolerability of noribogaine in healthy humans (adverse events, vital signs, ECG)
Method: as §1, §2

[5] = Serum noribogaine pharmacokinetics in patients, Phase IB study; settings: for Vd/F / AUC(0-t) / Cmax / Tmax / AUC / half-life: human, serum, opioid-dependent patients, mean ± SD; for Vd/F: unit inferred; for AUC: read-out: AUC(0-¥)
Method: (§3) The efficacy of noribogaine in humans was evaluated in opioid-dependent participants in a randomized, placebo-controlled, double-blind trial. […] See U.S. application Ser. No. 14/214,157, filed Mar. 14, 2014 and Ser. No. 14/346,655, filed Mar. 21, 2014, which are incorporated herein by reference in their entireties.
(§4) Three cohorts of nine (9) subjects (6 administered noribogaine and 3 administered placebo in each cohort) were evaluated for tolerability, pharmacokinetics, and efficacy. Cohort 1 received a single dose of 60 mg noribogaine or placebo. Cohort 2 received a single dose of 120 mg noribogaine or placebo. Cohort 3 received a single dose of 180 mg noribogaine or placebo.

[6] = system: opioid-dependent participants; assay: Time to resumption of morphine (opioid substitution treatment, OST)
Method: as §3, §4

[7] = system: opioid-dependent participants; assay: Opiate withdrawal scales COWS, SOWS, OOWS
Method: Patients were evaluated based on the Clinical Opiate Withdrawal Scale (COWS), Subjective Opiate Withdrawal Scale (SOWS), and Objective Opiate Withdrawal Scale (OOWS) scoring systems over the period of time between administration of noribogaine (or placebo) until resumption of OST. These scales are outlined in Guidelines for the Psychosocially Assisted Pharmacological Treatment of Opioid Dependence, World Health Organization, Geneva (2009), Annex 10, which is incorporated herein by reference in its entirety. The scales measure the intensity of withdrawal symptoms, based on clinical, subjective, and objective indicia.

[8] = system: opioid-dependent participants; assay: QT interval prolongation in opioid-dependent patients; settings: 60, 120, 180 mg, first 24 hours post administration; correlated with serum concentration
Method: Patients' QT intervals were evaluated at regular time points throughout the study.

[9] = healthy male volunteers, single oral 3 mg noribogaine, mean (n = 6)
[10] = healthy male volunteers, single oral 10 mg noribogaine, mean (n = 6)
[11] = healthy male volunteers, single oral 30 mg noribogaine, mean (n = 6)
[12] = healthy male volunteers, single oral 60 mg noribogaine, mean (n = 6)
[13] = healthy volunteers, 3-60 mg single oral doses
[14] = after adjusting for baseline differences, p>0.9

CC[C@H]1CC2C[C@H]3c4[nH]c5ccc(O)cc5c4CCN(C2)C13 [Noribogaine]
CL/F [1, 9]: 41.4 L/h
CL/F [1, 10]: 42.3 L/h
CL/F [1, 11]: 46.9 L/h
CL/F [1, 12]: 34.0 L/h
Volume of distribution across dose groups [1, 13]: 1417 to 3086 L
dose dependence of Cmax and AUC [1, 13]: increased linearly with dose
time of peak concentrations after oral dosing [1, 13]: 2 to 3 h
AUC(0-inf) [1, 9]: 74.2 ng·h/mL
Cmax [1, 9]: 5.2 ng/mL
Tmax [1, 9]: 1.9 h
Vd/F [1, 9]: 2490 L
AUC(0-t) [1, 9]: 72.2 ng·h/mL
half-life ([1]; healthy male volunteers, single oral 3 mg noribogaine, mean (n = 6), read-out: t1/2 (converted)): 40.9 h
AUC(0-inf) [1, 10]: 254 ng·h/mL
Cmax [1, 10]: 14.5 ng/mL
Tmax [1, 10]: 2.9 h
Vd/F [1, 10]: 3090 L
AUC(0-t) [1, 10]: 251 ng·h/mL
half-life ([1]; healthy male volunteers, single oral 10 mg noribogaine, mean (n = 6), read-out: t1/2 (converted)): 49.2 h
AUC(0-inf) [1, 11]: 700 ng·h/mL
Cmax [1, 11]: 55.9 ng/mL
Tmax [1, 11]: 1.8 h
Vd/F [1, 11]: 1850 L
AUC(0-t) [1, 11]: 678 ng·h/mL
half-life ([1]; healthy male volunteers, single oral 30 mg noribogaine, mean (n = 6), read-out: t1/2 (converted)): 27.6 h
AUC(0-inf) [1, 12]: 1960 ng·h/mL
Cmax [1, 12]: 116 ng/mL
Tmax [1, 12]: 2.4 h
Vd/F [1, 12]: 1420 L
AUC(0-t) [1, 12]: 1940 ng·h/mL
half-life ([1]; healthy male volunteers, single oral 60 mg noribogaine, mean (n = 6), read-out: t1/2 (converted)): 29.1 h
half-life ([1]; male, healthy volunteers, 3-60 mg single oral doses, read-out: Mean half-life estimates across dose groups): 28 to 50 h
pupil diameter, each dose group compared with placebo by ANOVA [2, 14]: no statistically significant differences
pupillary constriction [2, 13]: no evidence of pupillary constriction
VAS pain scores, each dose group compared with placebo by ANOVA ([3]; after adjusting for baseline differences, p=0.17): no statistically significant differences
duration of hand immersion, each dose group compared with placebo by ANOVA [3, 14]: no statistically significant differences
analgesic effect in the cold pressor test ([3]; healthy volunteers, 3-60 mg single oral doses, 1° C. water): no analgesic effect
Adverse events, Mild ([4]; healthy volunteers, 3 mg dose): Dizziness; also recorded: Epistaxis; also recorded: Headache; also recorded: Back pain
Adverse events, Moderate ([4]; healthy volunteers, 3 mg dose): Headache
number of adverse events reported ([4]; healthy volunteers, 3 mg dose group): five adverse events were reported by two subjects
Adverse events, Mild ([4]; healthy volunteers, 10 mg dose): Headache
number of adverse events reported ([4]; healthy volunteers, 10 mg dose group): one adverse event was reported by single subjects
Adverse events, Mild ([4]; healthy volunteers, 30 mg dose): Headache
number of adverse events reported ([4]; healthy volunteers, 30 mg dose group): one adverse event was reported by single subjects
changes in oximetry, capnography, respiratory rate ([4]; healthy volunteers, 3-60 mg): no changes in oximetry or capnography, or changes in respiratory rate
changes in vital signs or safety laboratory tests ([4]; healthy volunteers, 3-60 mg): no changes in vital signs or safety laboratory tests of note
QTcF values ([4]; healthy volunteers, 3-60 mg, at any time): ≤ 500 ms
intensity of adverse events ([4]; healthy volunteers, all groups, all resolved prior to study completion): mild-moderate intensity
single increase in QTcF ([4]; one subject dosed with 10 mg, 24 hours post-dosing): > 60 ms
dose dependence of maximum serum concentration (Cmax) ([5]; 60, 120, 180 mg cohorts): increased in a dose-dependent manner
Vd/F ([5]; Cohort 2 (120 mg)): 2110 ± 1640 L
Vd/F ([5]; Cohort 3 (180 mg)): 1030 ± 365 L
AUC(0-t) ([5]; Cohort 1 (60 mg)): 2020 ± 614 ng·h/mL
Cmax ([5]; Cohort 1 (60 mg)): 81.6 ± 23.8 ng/mL
Tmax ([5]; Cohort 1 (60 mg)): 3.59 ± 0.92 h
AUC ([5]; Cohort 1 (60 mg)): 2060 ± 609 ng·h/mL
AUC(0-t) ([5]; Cohort 2 (120 mg)): 3230 ± 1540 ng·h/mL
Cmax ([5]; Cohort 2 (120 mg)): 173 ± 30.7 ng/mL
Tmax ([5]; Cohort 2 (120 mg)): 2.99 ± 1.23 h
half-life ([5]; Cohort 2 (120 mg)): 30.4 ± 9.14 h
AUC ([5]; Cohort 2 (120 mg)): 3280 ± 1580 ng·h/mL
AUC(0-t) ([5]; Cohort 3 (180 mg)): 6520 ± 2910 ng·h/mL
Cmax ([5]; Cohort 3 (180 mg)): 268 ± 46.9 ng/mL
Tmax ([5]; Cohort 3 (180 mg)): 4.41 ± 1.8 h
half-life ([5]; Cohort 3 (180 mg)): 23.9 ± 5.54 h
AUC ([5]; Cohort 3 (180 mg)): 6890 ± 3490 ng·h/mL
average time to resumption of opioids ([6]; single 120 mg dose, given 2 hours after last morphine dose): greater than 20 hours
Time to resumption of OST compared with untreated patients and 60 mg group ([6]; single 180 mg dose): still longer than untreated patients (7 hours, not shown) or those administered 60 mg noribogaine
withdrawal symptoms (COWS, OOWS, SOWS), first six hours following dosing ([7]; single 120 mg dose, compared with the other patients): generally experienced fewer withdrawal symptoms than the other patients
withdrawal symptoms (COWS, OOWS, SOWS), noribogaine compared with placebo ([7]; single 60, 120 or 180 mg dose, first six hours following dosing): Patients administered placebo generally experienced more withdrawal symptoms than patients who were administered noribogaine
QT interval prolongation (ΔQTcl) [8]: dose-dependent increase in QT interval prolongation
